A value given as a limit tells only on which side of the number the result lay.

For this test, the target named is T1, Human cRaf1 (Homo sapiens, UniProt P04049).
T1 construct: poly-histidine (C); made in house
In words: Raf kinase assay (cRaf1 assay / Raf/MEK cascade assay). Format: biochemical. Particulars: Table 3; read-out: Raf Kinase activity. Here is the method: The potency of cRaf1 dependent kinase activity was measured using one of two assay formats. The first measured cRaf1 catalyzed phosphorylation of MEK1, the natural substrate for cRaf1. This assay is referred to as the cRaf1 assay. The second measured the ability of cRaf1 to phosphorylate and activate MEK1. This assay is referred to as the Raf/MEK cascade assay.
Human cRaf1 tagged with poly histidine at the carboxyterminus was expressed in a baculovirus expression system and purfied by Ni chelate affinity chromatography. Human MEK1 was expressed in E. coli as a fusion protein with Glutathione-S-transferase, and purified by glutathione sepharose affinity chromatography. […] Reactions contained cRaf1 (20 nM), MEK1 (100-500 nM), [γ-^32 P]ATP ([…]), Mg^2+ (10 mM), MOPS (50 mM, pH 7.5). Reactions were incubated at room temperature for periods of time ranging from 20-120 minutes. Inhibitors were diluted in 100% DMSO prior to addition to the assay. Reactions were terminated with an equal volume of 0.5% phosphoric acid. MEK1 phosphorylation was detected by scintillation counting following collection of protein onto phosphocellulose filters.
Human cRaf1 and MEK1 were purified as described above. A peptide substrate phosphorylated by MEK1 was used as the final phosphoryl group acceptor. […] Assay conditions were the same as those described above except for the following modifications. Reactions contained cRaf1 (1-5 nM), MEK1 (60 nM), and peptide ([…]).

T1 sequence (P04049 whole entry): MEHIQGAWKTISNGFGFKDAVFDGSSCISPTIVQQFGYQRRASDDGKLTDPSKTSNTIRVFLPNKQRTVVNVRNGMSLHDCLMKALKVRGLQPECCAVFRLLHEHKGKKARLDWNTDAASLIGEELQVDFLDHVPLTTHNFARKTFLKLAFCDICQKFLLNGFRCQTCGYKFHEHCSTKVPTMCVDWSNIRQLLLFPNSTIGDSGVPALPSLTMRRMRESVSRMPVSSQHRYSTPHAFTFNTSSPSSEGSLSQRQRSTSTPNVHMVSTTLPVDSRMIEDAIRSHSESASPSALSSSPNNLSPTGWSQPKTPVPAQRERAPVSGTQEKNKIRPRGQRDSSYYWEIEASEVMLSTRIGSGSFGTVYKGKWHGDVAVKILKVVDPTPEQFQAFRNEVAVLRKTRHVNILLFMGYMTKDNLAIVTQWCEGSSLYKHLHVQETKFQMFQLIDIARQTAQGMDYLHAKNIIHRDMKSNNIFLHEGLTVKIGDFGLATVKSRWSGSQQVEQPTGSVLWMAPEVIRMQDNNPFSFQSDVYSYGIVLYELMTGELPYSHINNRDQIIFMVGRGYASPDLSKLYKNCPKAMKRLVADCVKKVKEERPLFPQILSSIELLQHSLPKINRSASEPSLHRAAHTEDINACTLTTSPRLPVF

As for `CCN(CC)S(=O)(=O)c1ccc2c(c1)C(=Cc1cc(Br)c(O)c(Br)c1)C(=O)N2` [Example 34, 3-(3,5-Dibromo-4-hydroxy-benzylidene)-2-oxo-2,3 dihydro-1H-indole-5-sulfonic acid N,N-diethylamide], the IC50 was less than 1000 nM.
With `O=C1Nc2ccc(S(=O)(=O)N3CCCC3)cc2C1=Cc1cc(Br)c(O)c(Br)c1` [Example 35, 3-(3,5-Dibromo-4-hydroxy-benzylidene)-5-(pyrrolidine-1-sulfonyl)-1,3-dihydro-indol-2-one], the IC50 was less than 1000 nM.
The result for `CN(C)CCN(C)S(=O)(=O)c1ccc2c(c1)C(=Cc1cc(Br)c(O)c(Br)c1)C(=O)N2` [Example 36, 3-(3,5-Dibromo-4-hydroxy-benzylidene)-2-oxo-2,3-dihydro-1H-indol-5-sulfonic acid (N-2-dimethylamino-ethyl)-N-methyl-amide] reads less than 1000 nM; that for `O=C1Nc2ccc(C(=O)c3ccno3)cc2C1=Cc1cc(Br)c(O)c(Br)c1` [Example 37, 3-(3,5-Dibromo-4-hydroxy-benzylidene)-5-(isoxazole-5-carbonyl)-1,3-dihydro-indol-2-one], less than 1000 nM.
With `O=C1Nc2ccc(Cl)cc2C1=Cc1cc(Br)c(O)c(Br)c1` [Example 38, 5-Chloro-3-(3,5-dibromo-4-hydroxy-benzylidene)-1,3-dihydro-indol-2-one], the IC50 was less than 1000 nM.
The result for `O=C1Nc2ccc(Cl)cc2C1=Cc1cc(Cl)c(O)c(Cl)c1` [Example 39, 5-Chloro-3-(3,5-dichloro-4-hydroxy-benzylidene)-1,3-dihydro-indol-2-one] reads less than 1000 nM; that for `O=C1Nc2ccc(OC(F)(F)F)cc2C1=Cc1cc(Br)c(O)c(Br)c1` [Example 40, 3-(3,5-Dibromo-4-hydroxy-benzylidene)-5-trifluoromethoxy-1,3-dihydro-indol-2-one], less than 1000 nM; that for `O=C1Nc2ccc(Br)cc2C1=Cc1cc(Cl)c(O)c(Cl)c1` [Example 41, 5-Bromo-3-(3,5-dichloro-4-hydroxy-benzylidene)-1,3-dihydro-indol-2-one], less than 1000 nM.
The result for `CCOc1cc(C=C2C(=O)Nc3ccc(I)cc32)cc(Br)c1O` [Example 42, 3-(3-Bromo-5-ethoxy-4-hydroxy-benzylidene)-5-iodo-1,3-dihydro-indol-2-one] reads less than 1000 nM.
The result for `COc1cc(C=C2C(=O)Nc3ccc(I)cc32)cc(Br)c1O` [Example 43, 3-(3-Bromo-4-hydroxy-5-methoxy-benzylidene)-5-iodo-1,3-dihydro-indol-2-one] reads less than 1000 nM.
Turning to `O=C1Nc2ccc(Br)cc2C1=Cc1cc(I)c(O)c(I)c1` [Example 44, 5-Bromo-3-(3,5-diiodo-4-hydroxy-benzylidene)-1,3-dihydro-indol-2-one], the IC50 is less than 1000 nM.
In the case of `O=C1Nc2ccc(OC(F)(F)F)cc2C1=Cc1cc(I)c(O)c(I)c1` [Example 45, 3-(3,5-diiodo-4-Hydroxy-benzylidene)-5-trifluoromethoxy-1,3-dihydro-indol-2-one], the IC50 is less than 1000 nM.
Consider `COc1cc(C=C2C(=O)Nc3ccccc32)cc(Br)c1O` [Example 46, 3-(3-Bromo-4-hydroxy-5-methoxy-benzylidene)-1,3-dihydro-indol-2-one], for which the IC50 was less than 1000 nM.
The result for `O=C1Nc2ccccc2C1=Cc1cc([N+](=O)[O-])c(O)c([N+](=O)[O-])c1` [Example 47, 3-(3,5-dinitro-4-Hydroxy-benzylidene)-1,3-dihydro-indol-2-one] reads 1000 to 10000 nM; that for `O=C1Nc2ccccc2C1=Cc1cc(Cl)c(O)c(Cl)c1` [Example 48, 3-(3,5-dichloro-4-Hydroxy-benzylidene)-1,3-dihydro-indol-2-one], 1000 to 10000 nM; that for `COc1cc(C=C2C(=O)Nc3ccccc32)cc(Cl)c1O` [Example 49, 3-(3-Chloro-4-hydroxy-5-methoxy-benzylidene)-1,3-dihydro-indol-2-one], 1000 to 10000 nM.
The result for `O=C1Nc2ccccc2C1=Cc1cc(I)c(O)c(I)c1` [Example 50, 3-(3,5-diiodo-4-Hydroxy-benzylidene)-1,3-dihydro-indol-2-one] reads 1000 to 10000 nM; that for `COc1cc(C=C2C(=O)Nc3ccc(Cl)cc32)cc(Br)c1O` [Example 51, 3-(3-Bromo-4-hydroxy-5-methoxy-benzylidene)-5-chloro-1,3-dihydro-indol-2-one], less than 1000 nM.
The result for `O=C1Nc2ccc(Cl)cc2C1=Cc1cc([N+](=O)[O-])c(O)c([N+](=O)[O-])c1` [Example 52, 5-Chloro-3-(3,5-dinitro-4-hydroxy-benzylidene)-1,3-dihydro-indol-2-one] reads less than 1000 nM.
As for `COc1cc(C=C2C(=O)Nc3ccc(Cl)cc32)cc([N+](=O)[O-])c1O` [Example 53, 5-Chloro-3-(4-hydroxy-3-methoxy-5-nitro-benzylidene)-1,3-dihydro-indol-2-one], the IC50 is less than 1000 nM.
The result for `COc1cc(C=C2C(=O)Nc3ccc(Cl)cc32)cc(Cl)c1O` [Example 54, 5-Chloro-3-(3-chloro-4-hydroxy-5-methoxy-benzylidene)-1,3-dihydro-indol-2-one] reads less than 1000 nM; that for `O=C1Nc2ccc(Cl)cc2C1=Cc1cc(I)c(O)c(I)c1` [Example 55, 5-Chloro-3-(3,5-diiodo-4-hydroxy-benzylidene)-1,3-dihydro-indol-2-one], less than 1000 nM.
The value for `CCOc1cc(C=C2C(=O)Nc3ccc(Br)cc32)cc(Br)c1O` [Example 56, 5-Bromo-3-(3-bromo-5-ethoxy-4-hydroxy-benzylidene)-1,3-dihydro-indol-2-one] was less than 1000 nM; that for `COc1cc(C=C2C(=O)Nc3ccc(Br)cc32)cc(Br)c1O` [Example 57, 5-Bromo-3-(3-bromo-4-hydroxy-5-methoxy-benzylidene)-1,3-dihydro-indol-2-one] was less than 1000 nM; that for `COc1cc(C=C2C(=O)Nc3cc(F)c(F)cc32)cc(Br)c1O` [Example 58, 3-(3-Bromo-4-hydroxy-5-methoxy-benzylidene)-5,6-difluoro-1,3-dihydro-indol-2-one] was less than 1000 nM.
The result for `CCOc1cc(C=C2C(=O)Nc3ccc(OC(F)(F)F)cc32)cc(Br)c1O` [Example 59, 3-(3-Bromo-5-ethoxy-4-hydroxy-benzylidene)-5-trifluoromethoxy-1,3-dihydro-indol-2-one] reads less than 1000 nM.
With `O=C1Nc2ccc(OC(F)(F)F)cc2C1=Cc1cc(Cl)c(O)c(Cl)c1` [Example 60, 3-(3,5-Dichloro-4-hydroxy-benzylidene)-5-trifluoromethoxy-1,3-dihydro-indol-2-one], the IC50 was less than 1000 nM.
The value for `COc1cc(C=C2C(=O)Nc3ccc(OC(F)(F)F)cc32)cc(Br)c1O` [Example 61, 3-(3-Bromo-4-hydroxy-5-methoxy-benzylidene)-5-trifluoromethoxy-1,3-dihydro-indol-2-one] was less than 1000 nM; that for `O=C1Nc2c(cc([N+](=O)[O-])cc2[N+](=O)[O-])C1=Cc1cc(Br)c(O)c(Br)c1` [Example 62, 3-(3,5-Dibromo-4-hydroxy-benzylidene)-5,7-dinitro-1,3-dihydro-indol-2-one] was less than 1000 nM.
With `O=C1Nc2ccc([N+](=O)[O-])cc2C1=Cc1cc(Br)c(O)c(Br)c1` [Example 63, 3-(3,5-Dibromo-4-hydroxy-benzylidene)-5-nitro-1,3-dihydro-indol-2-one], the IC50 is less than 1000 nM.
The value for `O=C1Nc2c(I)cccc2C1=Cc1cc(Br)c(O)c(Br)c1` [Example 64, 3-(3,5-Dibromo-4-hydroxy-benzylidene)-7-iodo-1,3-dihydro-indol-2-one] was less than 1000 nM; that for `O=C1Nc2ccc([N+](=O)[O-])cc2C1=Cc1cc(Cl)c(O)c(Cl)c1` [Example 65, 3-(3,5-Dichloro-4-hydroxy-benzylidene)-5-nitro-1,3-dihydro-indol-2-one] was less than 1000 nM.
With `O=C1Nc2c(Br)cccc2C1=Cc1cc(Cl)c(O)c(Cl)c1` [Example 67, 7-Bromo-3-(3,5-dichloro-4-hydroxy-benzylidene)-1,3-dihydro-indol-2-one], the IC50 was less than 1000 nM.
The value for `CCOc1cc(C=C2C(=O)Nc3ccc([N+](=O)[O-])cc32)cc(Br)c1O` [Example 68, 3-(3-Bromo-5-ethoxy-4-hydroxy-benzylidene)-5-nitro-1,3-dihydro-indol-2-one] was less than 1000 nM; that for `CN(CC(N)=O)CC(=O)c1ccc2c(c1)C(=Cc1cc(Br)c(O)c(Br)c1)C(=O)N2` [Example 69, 2-(N-{3-[3-(3,5 Dibromo-4-hydroxy-benzylidene)-2-oxo-2,3-dihydro-1H-indol-5-yl]-2-oxo-ethyl}-N-methyl-amino)-acetamide] was less than 1000 nM.
The result for `O=C1Nc2ccc(C(=O)CN(CCO)CCCO)cc2C1=Cc1cc(Br)c(O)c(Br)c1` [Example 70, 3-(3,5-Dibromo-4-hydroxy-benzylidene)-5-{2-[(N-2-hydroxy-ethyl)-N-(3-hydroxy-propyl)-amino]-acetyl}-1,3-dihydro-indol-2-one] reads less than 1000 nM; that for `O=C1Nc2ccc(C(=O)CN3CCSCC3)cc2C1=Cc1cc(Br)c(O)c(Br)c1` [Example 72], less than 1000 nM.
The result for `O=C1Nc2ccc(C(=O)CN3CCOCC3)cc2C1=Cc1cc(Br)c(O)c(Br)c1` [Example 73] reads less than 1000 nM.

Values taken from patent US6268391A, “Benzylidene-1,3-dihydro-indol-2-one derivatives a receptor tyrosine kinase inhibitors, particularly of Raf kinases” (Glaxo Wellcome Inc., priority 1997, dated 2001).
